The values below come from patent US20120108592A1, “PHARMACEUTICAL COMPOSITIONS AND METHODS OF USE OF SALICYLANILIDES FOR TREATMENT OF HEPATITIS VIRUSES” (priority 2010, published 2012).

The conditions of data set [1]: after oral 500 mg NTZ tablet; cited from earlier work.
Data set [2] deals with HCV replicon cell line, AVA5 (sub-genomic CONI, genotype 1b). Nature of the data set: Primary HCV replicon cell assay, antiviral activity (intracellular HCV RNA, blot hybridization). The class given is cell-based. To be noted: Hepatitis C virus, Ava5, 72 h, 3-day assay; for EC50: 2-fold depression of intracellular HCV RNA; for EC90: 10-fold depression of intracellular HCV RNA. As to the method: (§1) Antiviral activity of test compounds was assessed in a 3-day assay using the stably-expressing HCV replicon cell line, AVA5 (sub-genomic CONI, genotype 1b) [Korba, B. E. et al. Antiviral Res. 77, 56-63 (2008); Blight et al., Science 290, 1972-1974 (2000)] maintained as sub-confluent cultures on 96-well plates as previously described [Okuse et al., Antiviral Research 65, 23-34 (2005)]. Antiviral activity was determined by blot hybridization analysis of intracellular HCV RNA (normalized to the level of cellular B-actin RNA in each culture sample) and cytotoxicity was assessed by neutral red dye uptake after 3 days of treatment. Additional studies were performed using Huh7 cells containing another HCV replicon, H/FL-Neo, a genotype la full length construct [Blight et al., J. Virol. 77, 3181-3190 (2003)]. For studies involving human serum, standard culture medium (which contains 10% fetal bovine serum) and assay conditions were maintained.
(§2) EC50, EC90 and CC50 values (±standard deviations [S.D.]) were calculated by linear regression analysis using data combined from all treated cultures (Korba, B. E. et al. Antiviral Res. 77, 56-63 (2008)). […] Selectivity index (S.I.) was calculated as CC50/EC90 for HBV assays and CC50/EC50 for HCV assays.

In data set [3] the test system is HBV replication intermediates in 2.2.15 cells. Nature of the data set: HBV antiviral assay in 2.2.15 cells, replication intermediates (RI) HBV DNA. The following applies: Hepatitis B virus; HBV replication intermediates, 2.2.15 cells, nine daily doses; read-out: EC50 (RI). The class given is cell-based.
Method: (§4) HBV antiviral assays were conducted as previously described [Korba, B. E. et al. Antiviral Res. 77, 56-63 (2008);].
The test system of data set [4] is HCV replicon H/FL-Neo, genotype 1a full length construct, in Huh7 cells. Nature of the data set: Secondary HCV replicon cell assay genotype 1a, antiviral activity. The class given is cell-based. The following applies: Hepatitis C virus; for EC50: Huh-7, 2-fold depression of intracellular HCV RNA; for EC90: Huh-7, 10-fold depression of intracellular HCV RNA. Here is the method: as §1, §2

The subject of data set [5] is J6/JFH-1 HCV (genotype 2a) in Huh 7.5 cells. Put plainly: Infectious genotype 2a HCV cell culture assay (RT-PCR viral load). The class given is cell-based, hepatitis C virus (HCV). To be noted: genotype G2a; for inhibition of J6/JFH-1 HCV replication: 1 μM test concentration; for relative activity / potency versus NTZ: at 1 μM, % of NTZ. As to the method: (§3) Genotype 2a antiviral assays were conducted as previously described [Broering R. et al., Gut, 59, 1111-1119 (2010)]. […] Cell viability was determined using the Calcein assay kit (Biotium, Inc. Hayward, Calif., USA). The alternate method for measuring cell cytotoxicity was via the Guava Technologies ViaCount assay (Millipore) The ViaCount Assay provides rapid and reliable determinations of viability and total cell count. It distinguishes viable and non-viable cells based on differential permeabilities of two DNA-binding dyes in the Guava ViaCount® Reagent. The nuclear dye stains only nucleated cells, while the viability dye brightly stains dying cells. This combination of dyes enables the Guava ViaCount Assay to distinguish viable, apoptotic, and dead cells. Debris is excluded from results based on negative staining with the nuclear dye.
HCV replication levels were determined by RT-PCR on RNA from cell culture supernatants. J6-infected Huh 7.5 cells were seeded in 12-well plates at a density of 2.0E5 cells/well in 1.5 mL of DMEM supplemented with 10% FBS and 1% Pen/Strep. […] A positive control of IFN-α at concentrations of 10 IU/mL and 50 IU/mL, negative control wells containing mock incubations of DMEM with 1 uL and 10 uL (the same volume of the molecular compounds at 1 uM and 10 uM, respectively) of DMSO was included to rule out nonspecific effects of DMSO on the cells, and J6-infected with only DMEM were used as negative controls. A final control group consisted of un-infected Huh 7.5 cells, plated at the same time and density as the J6-infected cells on a separate plate. 48 hours and 120 hours after incubation with thiazolides, the media was collected and frozen, cells were washed 2× with PBS, and lysed in 500 uL of lysis buffer per well. Following lysis, RNA was extracted from the cells using the RNAqueous-4PCR Kit from Ambion, and the RNA concentration determined using the Nanoprop® machine. Reverse-transcription reactions produced 1.5 μg of cDNA per sample, which was then used for rt-PCR to quantify the HCV viral load in each sample. Analysis of the rt-PCR results generated the fold increases and decreases of the HCV viral load in comparison to untreated J6 cells.

For data set [6], the system named is Huh7 cells containing H/FL-Neo replicon. Nature of the data set: Secondary HCV replicon cell assay genotype 1a, cytotoxicity (neutral red dye uptake). The class given is cell-based.
Method: (§5) Antiviral activity of test compounds was assessed in a 3-day assay using the stably-expressing HCV replicon cell line, AVA5 (sub-genomic CONI, genotype 1b) [Korba, B. E. et al. Antiviral Res. 77, 56-63 (2008); Blight et al., Science 290, 1972-1974 (2000)] maintained as sub-confluent cultures on 96-well plates as previously described [Okuse et al., Antiviral Research 65, 23-34 (2005)]. Antiviral activity was determined by blot hybridization analysis of intracellular HCV RNA (normalized to the level of cellular B-actin RNA in each culture sample) and cytotoxicity was assessed by neutral red dye uptake after 3 days of treatment. Additional studies were performed using Huh7 cells containing another HCV replicon, H/FL-Neo, a genotype la full length construct [Blight et al., J. Virol. […] For studies involving human serum, standard culture medium (which contains 10% fetal bovine serum) and assay conditions were maintained.
Data set [7] in a line: Cytotoxicity in 2.2.15 cells (neutral red dye uptake). The class given is cell-based. To be noted: human, nine daily doses. As to the method:
Briefly, confluent cultures of 2.2.15 cells were maintained on 96-well flat-bottomed tissue culture plates (confluence in this culture system is required for active, high levels of HBV replication equivalent to that observed in chronically-infected individuals. Cultures were treated with nine consecutive daily doses of the test compounds. HBV DNA levels were assessed by quantitative blot hybridization 24 hr. after the last treatment. Cytotoxicity was assessed by uptake of neutral red dye 24 hr. following the last treatment.

Data set [8] deals with AVA5 HCV replicon cell line. Nature of the data set: Secondary HCV replicon cell assay genotype 1b, cytotoxicity (neutral red dye uptake). The class given is cell-based.
Method: as §5
Data set [9] has as its system HBV virion in 2.2.15 cells. Put plainly: HBV antiviral assay in 2.2.15 cells, virion (VIR) HBV DNA. The following applies: Hepatitis B virus, HBV virion DNA, 2.2.15 cells, nine daily doses; for EC50: read-out: EC50 (VIR). The class given is cell-based.
Method: as §4
The subject of the next data set is Huh 7.5 cells. Put plainly: Cytotoxicity in Huh 7.5 cells (Calcein / ViaCount assay). The class given is cell-based. As to the method: as §3
Data set [10] deals with HCV replicon cell line, AVA5 (sub-genomic CONI, genotype 1b). Nature of the data set: Secondary HCV replicon cell assay genotype 1b, antiviral activity. The class given is cell-based. To be noted: Hepatitis C virus; for EC50: 2-fold depression of intracellular HCV RNA; for EC90: 10-fold depression of intracellular HCV RNA. As to the method:
as §1, §2

Data set [11] is described as follows: Primary HCV replicon cell assay, cytotoxicity (neutral red dye uptake). The class given is cell-based. The following applies: human, 3 days of treatment.
Method: as §5
Data set [12] in a line: Secondary HCV replicon cell assay genotype 1a, cytotoxicity (neutral red dye uptake). The class given is cell-based. To be noted: human.
Method: as §5
The nature of data set [13]: Secondary HCV replicon cell assay genotype 1b, cytotoxicity (neutral red dye uptake). The class given is cell-based. The following applies: human, AVA5 HCV replicon cells (sub-genomic CON1).
Method: as §5
The mark [14] stands for this setting: AVA5 HCV replicon cells (sub-genomic CON1, genotype 1b).

“Also recorded” adds a separate entry of the source. Where only a bound is given, the exact number is not on record here.

For `CC(=O)Oc1ccccc1C(=O)Nc1ncc([N+](=O)[O-])s1` [NTZ, nitazoxanide, reference compound], the detection in plasma entry in [1] was “not detected in plasma”. For the same compound, the half-maximal effective concentration (EC50) in data set [2] was found to be 210 nM; in data set [3] it was 590 nM; in data set [4], 330 nM; in [9], 120 nM; in [10] it was 250 nM. Further, the EC90 in data set [2] stood at 977 nM; in data set [4], 1100 nM; in [10], 950 nM. Further, in data set [5], the “inhibition of J6/JFH-1 HCV replication” value is recorded as “demonstrated efficacy with regards to HCV replication; also recorded: shown to inhibit J6/JFH-1HCV replication”. Besides, the CC50 came out at 49000 nM in data set [6] and 35000 nM in data set [8]. In [7], the 50% cytotoxic concentration (CC50) at 9 days is greater than 100000 nM. For the same compound, in the data set on Huh 7.5 cells, the “cytotoxic effect in Huh 7.5 cells” value is “without being cytotoxic; also recorded: None of these compounds showed a cytotoxic effect”. Besides, the CC50 at 3 days in data set [11] came out at 31000 nM.
As to `O=C(Nc1cc(C(F)(F)F)ccc1Cl)c1ccccc1O` [Compound 41, N-(2-chloro-5-(trifluoromethyl)phenyl)-2-hydroxybenzamide], the concentration giving a half-maximal response (EC50) in data set [2] amounted to 5 nM; in [4] it was 55 nM; in data set [9], 3700 nM; in [10], 45 nM. For the same compound, the EC90 in data set [2] is 32 nM; in data set [4] it was 244 nM; in data set [9] (read-out: EC90 (VIR)) it was 13000 nM; in data set [10], 177 nM. For the same compound, the cytotoxic concentration (CC50) at 3 days is 680 nM in data set [12], 790 nM in [13] and 330 nM in data set [11] (setting [14]). In data set [7], this compound returned a half-maximal cytotoxic concentration (CC50) at 9 days greater than 100000 nM.
For `COC(=O)c1ccc(NC(=O)c2ccccc2OC(C)=O)cc1` [Compound 44, methyl 4-(2-acetoxybenzamido)benzoate], the EC50 in [2] was 58 nM; in data set [4], 300 nM; in data set [10], 350 nM. The EC90 was determined as 461 nM in data set [2], 5100 nM in data set [4] and 4500 nM in data set [10]. In data set [5], the “inhibition of J6/JFH-1 HCV replication” value was “shown to inhibit J6/JFH-1HCV replication”. The “relative activity / potency versus NTZ” value in [5] is listed as 53%. The CC50 at 3 days in data set [12] worked out at 7500 nM; in [13], 6800 nM; in [11] (setting [14]), 4400 nM. Also, in the data set with Huh 7.5 cells, the “cytotoxic effect in Huh 7.5 cells” value was “None of these compounds showed a cytotoxic effect”.
Compound `CC(=O)Oc1ccccc1C(=O)Nc1cc(C(F)(F)F)cc(C(F)(F)F)c1` [Compound 34, 2-(3,5-bis(trifluoromethyl)phenylcarbamoyl)phenyl acetate] yielded a melting point of 118 to 125 °C. Besides, in [2], the 50% effective concentration (EC50) worked out at 440 nM and it took 1700 nM to reach the 90% level (EC90). In [4], the 50% effective concentration (EC50) worked out at 790 nM and the EC90 is 4700 nM. The compound further showed a CC50 at 3 days in data set [12] of 7800 nM. Besides, in data set [13], the CC50 at 3 days turned out to be 9500 nM. In data set [10], this compound showed a concentration for a half-maximal effect (EC50) of 910 nM and a 90% effect concentration (EC90) of 3700 nM. This compound also yielded a CC50 at 3 days in data set [11] (setting [14]) of 4300 nM.
Turning to `CC(=O)Oc1ccc(Cl)cc1C(=O)Nc1ccc([N+](=O)[O-])cc1Cl` [Compound 25, 4-chloro-2-(2-chloro-4-nitrophenylcarbamoyl)phenyl acetate], the 50% effective concentration (EC50) worked out at 130 nM in data set [2], 100 nM in [4] and 78 nM in data set [10]. The values for the EC90 in [2], in data set [4] and in data set [10] were 820 nM, 460 nM and 310 nM, respectively. Also, the cytotoxic concentration (CC50) at 3 days in data set [12] was found to be 4300 nM; in [13], 3400 nM; in data set [11] (setting [14]), 5800 nM.
In the case of `O=C(Nc1ccc([N+](=O)[O-])cc1Cl)c1cc(Cl)ccc1O` [Compound 6, 5-chloro-N-(2-chloro-4-nitrophenyl)-2-hydroxybenzamide], the EC50 in [2] stood at 310 nM; in data set [4] it was 110 nM; in data set [10], 100 nM. In addition, the EC90 amounted to 1200 nM in data set [2], 820 nM in [4] and 610 nM in [10]. Further, the CC50 at 3 days in data set [12] was found to be 790 nM; in data set [13], 640 nM; in data set [11] (setting [14]), 11000 nM.
As to `O=C(Nc1cccc(F)c1)c1ccccc1O` [Compound 3, N-(3-fluorophenyl)-2-hydroxybenzamide], the results for the concentration giving a half-maximal response (EC50) in [2], in data set [4] and in data set [10] were 820 nM, 420 nM and 600 nM, respectively. Also, the EC90 came out at 2700 nM in data set [2], 3300 nM in data set [4] and 2600 nM in data set [10]. The “inhibition of J6/JFH-1 HCV replication” value in data set [5] is “shown to inhibit J6/JFH-1HCV replication”. The “relative activity / potency versus NTZ” value in [5] came to 65%. Moreover, the half-maximal cytotoxic concentration (CC50) at 3 days was 9900 nM in [12], 11000 nM in [13] and greater than 100000 nM in data set [11] (setting [14]). In addition, the “cytotoxic effect in Huh 7.5 cells” value in the data set with Huh 7.5 cells is “None of these compounds showed a cytotoxic effect”.
